Read-outs that look alike come from different tables or passages of the source. Where no end group is shown, it is not given here.
How the values were obtained:
[1] = system: rat myocardial ischemia-reperfusion model; assay: rat myocardial ischemia-reperfusion model (30-min coronary occlusion, 4-hr reperfusion), infarct size; format: in vivo; details: for effect on infarct size (in words): infusion at late ischemia-early reperfusion; for increase of infarct size (IS): pre-ischemic infusion (10-min), ICI-118551 100 μg/kg/min, CGRP8-37 3 ng/kg/min, n=8/group
Source text: N=6 rats/group. […] Yellow zone within the red is the infarcted area. Red zone is the area-at-risk supplied by the occluded left anterior descending coronary artery. Blue zone is non-risk zone supplied by no-occluded right and circumflex coronary arteries. Infarct size is normalized as the ration of yellow-area/red-area. Acute infarction-reperfusion model consists of 30-minute occlusion of the left anterior descending coronary artery followed by four-hour reperfusion. Infarct-size was quantified at the end of four-hour reperfusion. N=6 rats/group. Inventors used rat MI model (30-min ischemia and 4 h reperfusion). […] The effect of combination therapy on myocyte protection was further assessed in a simulated ischemia-reperfusion model of isolated rat ventricular myocytes (2-hr ischemia and 1-hr reperfusion). […] The mechanisms underlying combination therapy were determined by assessing myocardial PKA and PKC activity in normal rats. […] Experimental Myocardial Ischemia-Reperfusion Model. The rat myocardial ischemia-reperfusion model will be used (Birnbaum et al., 2005; Huang et al., 2007a). This model consists of 30 min coronary artery occlusion followed by 4-hr reperfusion. […] To determine the effect of β1-adrenergic receptor antagonist and the synergistic action of both PKA activator and β1-adrenergic receptor antagonist, esmolol ([…]) will be intravenously infused to rats with or without milrinone. Arterial blood pressure and heart rate will be monitored continuously throughout the experiments. Method for in vivo myocardial infarct study: Following anesthesia and ventilation support, the chest is opened and the left coronary artery encircled with a suture and ligated for 30 min. The snare is then released and myocardium reperfused for 4 hr. The left coronary artery is then reoccluded and Evan's blue dye injected into the right ventricle. The LV is sliced into 6-7 sections. […] The areas of ischemia and necrosis in each slice are determined by planimetry, converted into percentages of the whole for each slice, and multiplied by the weight of the slice.

[2] = system: isolated rat ventricular myocytes; assay: simulated ischemia-reperfusion of isolated rat ventricular myocytes (2-hr hypoxia, 1-hr re-oxygenation), myocyte death; format: cell-based
Method: In vitro myocyte ischemia/reperfusion study consists of 2-hour hypoxia followed by 1-hour re-oxygenation. Hypoxia is created by layering mineral oil over the cells. Re-oxygenation is made by removal of the oil. Myocyte death is quantified at the end of 1-hour reperfusion.
(§1) Inventors used rat MI model (30-min ischemia and 4 h reperfusion). […] The effect of combination therapy on myocyte protection was further assessed in a simulated ischemia-reperfusion model of isolated rat ventricular myocytes (2-hr ischemia and 1-hr reperfusion). […] The mechanisms underlying combination therapy were determined by assessing myocardial PKA and PKC activity in normal rats.
To verify that infarct-size reducing or limiting effect is a direct product of PKA activation on myocyte survival but not a secondary effect due to salutatory coronary/systemic hemodynamic alternations, the inventors tested the effect of PKA activation by milrinone on isolated rat ventricular myocytes in primary culture. In vitro myocyte ischemia-reperfusion study consists of 2-hour hypoxia followed by 1-hour re-oxygenation. Hypoxia is created by layering mineral oil over the cells. Re-oxygenation is made by removal of the oil. Myocyte death is quantified at the end of 1-hour reperfusion.

PKA = assay: myocardial PKA activity after IV infusion in normal rats; format: in vivo, rat; details: 10-min tail vein infusion, peaked at 5-min post-infusion, ventricular tissue
Method: as §1

[3] = cited from earlier work
[4] = system: acute myocardial infarction; details: rat model, administration before the onset of acute myocardial infarction; cited from earlier work
[5] = system: acute myocardial infarction; details: canine model, administration 30-min after the onset of acute myocardial infarction; cited from earlier work
[6] = milrinone 5 μg/kg/min, esmolol 10 μg/kg/min

Compound: COC(=O)CCc1ccc(OCC(O)CNC(C)C)cc1 (centres unmarked) [esmolol]
- effect on infarct size (in words) [1, 6]: did not change infarct size

Compound: CGRP8-37: CGRP-receptor blocker (VTHRLAGLLSRSGGVVKNNFVPTNVGSKAF; ends and bridges not checked; UniProt P06881 90-119, looked up, fragment)
- increase of infarct size (IS) [1]: 36%

Compound: CC(C)(C)NCC(O)c1cc(O)cc(O)c1 (centres unmarked) [terbutaline]
- effect on infarct size (IS) of single agent (in words) ([1]; CGRP or terbutaline alone, late ischemia-early reperfusion): did not reduce IS
- myocyte survival benefit of single agent (in words) ([2]; CGRP or terbutaline alone): no myocyte survival benefit
- increase of PKA activity (PKA): 30%

Compound: Cc1ccc(OCC(O)C(C)NC(C)C)c2c1CCC2 (centres unmarked) [ICI-118551]
- increase of infarct size (IS) [1]: 44%

Compound: COc1cccc2c1C(=O)c1c(O)c3c(c(O)c1C2=O)C[C@@](O)(C(=O)CO)C[C@@H]3O[C@H]1C[C@H](N)[C@H](O)[C@H](C)O1 [doxorubicin]
- incidence of doxorubicin-induced cardiomyopathy ([3]; dose of 501-550 mg/m^2 body surface area, patients): > 5%
- incidence of doxorubicin-induced cardiomyopathy ([3]; dose over 550 mg/m^2, patients): 30%

Compound: Cc1[nH]c(=O)c(C#N)cc1-c1ccncc1 [milrinone]
- infarct-size reduction compared with saline control ([1]; 10-minute infusion from last 5 minutes of 30-minute ischemia to first 5 minutes of four-hour reperfusion, milrinone 5 μg/kg/min, esmolol 10 μg/kg/min, N=6 rats/group): 53±5%
- effect on infarct size (in words) [1, 6]: robust infarct-size reduction
- milrinone-induced myocyte protection in presence of PKA inhibitor ([2]; cells pretreated with PKA inhibitor Rp-CAMP 100 μmol/L): abolished
- reduction of myocyte death compared to saline control ([2]; milrinone 4.7 μmol/L, thirty minutes after the onset of ischemia): 11%
- effect on infarct size, given before onset of infarction (preconditioning) [4]: infarct-size reduction
- effect on infarct size, given after onset of infarction [5]: no infarct-size reduction
